What was measured:
Experiment in all cases: relative viability (nuclei count vs DMSO), 5 days (fraction); higher = more cells survive
NCI-H1915 = test system: NCI-H1915
Procedure, shortened: (§1)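 Dosing by pin tool came one day after lung cancer cell lines were seeded in 1536-well plates, using either one drug or a fixed anchor-drug dose plus five library-drug doses (not always all listed) in √10 steps. After 5 days, nuclei were counted on 4× images. Relative viability is treated-well nuclei count divided by vehicle-well nuclei count, and values are medians of duplicate plates.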

EPLC-272H = test system: EPLC-272H
Procedure, shortened: as §1

EMC-BAC-2 = test system: EMC-BAC-2
Procedure, shortened: as §1

NCI-H322M = test system: NCI-H322M
Procedure, shortened: as §1

PC-14 = test system: PC-14
Procedure, shortened: as §1

LCLC-97TM1 = test system: LCLC-97TM1
Procedure, shortened: as §1

LXF-289 = test system: LXF-289
Procedure, shortened: as §1

NCI-H2085 = test system: NCI-H2085
Procedure, shortened: as §1

NCI-H1993 = test system: NCI-H1993
Procedure, shortened: as §1

NCI-H2347 = test system: NCI-H2347
Procedure, shortened: as §1

HOP-62 = test system: HOP-62
Procedure, shortened: as §1

NCI-H1734 = test system: NCI-H1734
Procedure, shortened: as §1

NCI-H2126 = test system: NCI-H2126
Procedure, shortened: as §1

NCI-H647 = test system: NCI-H647
Procedure, shortened: as §1

H3255 = test system: H3255
Procedure, shortened: as §1

NCI-H727 = test system: NCI-H727
Procedure, shortened: as §1

COc1cc2nccc(Oc3ccc(NC(=O)Nc4cc(C)on4)c(Cl)c3)c2cc1OC [Tivozanib] + NC(=O)Nc1cc(-c2cccc(F)c2)sc1C(=O)N[C@H]1CCCNC1 [AZD7762] (partner 0.2 µM)
relative viability (NCI-H1915; first compound 0.005 µM): 0.728
relative viability (NCI-H1915; first compound 0.01581 µM): 0.687
relative viability (NCI-H1915; first compound 0.05 µM): 0.711
relative viability (NCI-H1915; first compound 0.1581 µM): 0.717
relative viability (NCI-H1915; first compound 0.5 µM): 0.618
relative viability (EPLC-272H; first compound 0.005 µM): 0.147
relative viability (EPLC-272H; first compound 0.01581 µM): 0.159
relative viability (EPLC-272H; first compound 0.05 µM): 0.186
relative viability (EPLC-272H; first compound 0.1581 µM): 0.203
relative viability (EPLC-272H; first compound 0.5 µM): 0.184
relative viability (EMC-BAC-2; first compound 0.005 µM): 1.06
relative viability (EMC-BAC-2; first compound 0.01581 µM): 1.15
relative viability (EMC-BAC-2; first compound 0.05 µM): 1.06
relative viability (EMC-BAC-2; first compound 0.1581 µM): 1.06
relative viability (EMC-BAC-2; first compound 0.5 µM): 1.04
relative viability (NCI-H322M; first compound 0.005 µM): 0.562
relative viability (NCI-H322M; first compound 0.01581 µM): 0.767
relative viability (NCI-H322M; first compound 0.05 µM): 0.628
relative viability (NCI-H322M; first compound 0.1581 µM): 0.443
relative viability (NCI-H322M; first compound 0.5 µM): 0.586
relative viability (PC-14; first compound 0.005 µM): 0.333
relative viability (PC-14; first compound 0.01581 µM): 0.338
relative viability (PC-14; first compound 0.05 µM): 0.369
relative viability (PC-14; first compound 0.1581 µM): 0.385
relative viability (PC-14; first compound 0.5 µM): 0.375
relative viability (LCLC-97TM1; first compound 0.005 µM): 0.128
relative viability (LCLC-97TM1; first compound 0.01581 µM): 0.274
relative viability (LCLC-97TM1; first compound 0.05 µM): 0.343
relative viability (LCLC-97TM1; first compound 0.1581 µM): 0.208
relative viability (LCLC-97TM1; first compound 0.5 µM): 0.262
relative viability (LXF-289; first compound 0.005 µM): 1.05
relative viability (LXF-289; first compound 0.01581 µM): 1.03
relative viability (LXF-289; first compound 0.05 µM): 1.09
relative viability (LXF-289; first compound 0.1581 µM): 1.21
relative viability (LXF-289; first compound 0.5 µM): 1.06
relative viability (NCI-H2085; first compound 0.005 µM): 0.881
relative viability (NCI-H2085; first compound 0.01581 µM): 0.862
relative viability (NCI-H2085; first compound 0.05 µM): 1.05
relative viability (NCI-H2085; first compound 0.1581 µM): 0.912
relative viability (NCI-H2085; first compound 0.5 µM): 0.887
relative viability (NCI-H1993; first compound 0.005 µM): 0.722
relative viability (NCI-H1993; first compound 0.01581 µM): 0.714
relative viability (NCI-H1993; first compound 0.05 µM): 0.968
relative viability (NCI-H1993; first compound 0.1581 µM): 0.631
relative viability (NCI-H1993; first compound 0.5 µM): 0.664
relative viability (NCI-H2347; first compound 0.005 µM): 0.73
relative viability (NCI-H2347; first compound 0.01581 µM): 0.836
relative viability (NCI-H2347; first compound 0.05 µM): 0.92
relative viability (NCI-H2347; first compound 0.1581 µM): 0.685
relative viability (NCI-H2347; first compound 0.5 µM): 0.709
relative viability (HOP-62; first compound 0.005 µM): 0.559
relative viability (HOP-62; first compound 0.01581 µM): 0.646
relative viability (HOP-62; first compound 0.05 µM): 0.383
relative viability (HOP-62; first compound 0.1581 µM): 0.429
relative viability (HOP-62; first compound 0.5 µM): 0.467
relative viability (NCI-H1734; first compound 0.005 µM): 0.515
relative viability (NCI-H1734; first compound 0.01581 µM): 0.524
relative viability (NCI-H1734; first compound 0.05 µM): 0.523
relative viability (NCI-H1734; first compound 0.1581 µM): 0.408
relative viability (NCI-H1734; first compound 0.5 µM): 0.451
relative viability (NCI-H2126; first compound 0.005 µM): 1.06
relative viability (NCI-H2126; first compound 0.01581 µM): 0.936
relative viability (NCI-H2126; first compound 0.05 µM): 1.02
relative viability (NCI-H2126; first compound 0.1581 µM): 0.732
relative viability (NCI-H2126; first compound 0.5 µM): 1.01
relative viability (NCI-H647; first compound 0.005 µM): 0.367
relative viability (NCI-H647; first compound 0.01581 µM): 0.42
relative viability (NCI-H647; first compound 0.05 µM): 0.789
relative viability (NCI-H647; first compound 0.1581 µM): 0.377
relative viability (NCI-H647; first compound 0.5 µM): 0.369
relative viability (H3255; first compound 0.005 µM): 0.672
relative viability (H3255; first compound 0.01581 µM): 0.86
relative viability (H3255; first compound 0.05 µM): 0.961
relative viability (H3255; first compound 0.1581 µM): 0.735
relative viability (H3255; first compound 0.5 µM): 0.861
relative viability (NCI-H727; first compound 0.005 µM): 0.548
relative viability (NCI-H727; first compound 0.01581 µM): 0.657
relative viability (NCI-H727; first compound 0.05 µM): 0.408
relative viability (NCI-H727; first compound 0.1581 µM): 0.442
relative viability (NCI-H727; first compound 0.5 µM): 0.697

From the supplement of paper PMC10307832
